Patent US9586950B2 (MERCK SHARP & DOHME CORP., priority 2012, dated 2017)

Assays:
[1] = target: T1, hOX1R (orexin-1 receptor) (Rattus norvegicus, UniProt P56718); experiment: FLIPR Ca2+ Flux Assay, hOX1R FLIPR; format: cell-based; conditions: CHO cells, 70 pM Ala-6,12 human orexin-A agonist
Description: (§1) In a typical experiment the OX1 and OX2 receptor antagonistic activity of the compounds of the present invention was determined in accordance with the following experimental method. For intracellular calcium measurements, Chinese hamster ovary (CHO) cells expressing the rat orexin-1 receptor or the human orexin-2 receptor, are grown in Iscove's modified DMEM containing 2 mM L-glutamine, […], 1% hypoxanthine-thymidine supplement, 100 U/ml penicillin, 100 μg/ml streptomycin and 10% heat-inactivated fetal calf serum (FCS). The cells are seeded at 20,000 cells/well into Becton-Dickinson black 384-well clear bottom sterile plates coated with poly-D-lysine. All reagents were from GIBCO-Invitrogen Corp. The seeded plates are incubated overnight at 37° C. and 5% CO2. Ala-6,12 human orexin-A as the agonist is prepared as a 1 mM stock solution in 1% bovine serum albumin (BSA) and diluted in assay buffer (HBSS containing 20 mM HEPES, 0.1% BSA and 2.5 mM probenecid, pH7.4) for use in the assay at a final concentration of 70 pM. Test compounds are prepared as 10 mM stock solution in DMSO, then diluted in 384-well plates, first in DMSO, then assay buffer. On the day of the assay, cells are washed 3 times with 100 μl assay buffer and then incubated for 60 min (37° C., 5% CO2) in 60 μl assay buffer containing 1 μM Fluo-4AM ester, 0.02% pluronic acid, and 1% BSA. The dye loading solution is then aspirated and cells are washed 3 times with 100 μl assay buffer. 30 μl of that same buffer is left in each well. Within the Fluorescent Imaging Plate Reader (FLIPR, Molecular Devices), test compounds are added to the plate in a volume of 25 μl, incubated for 5 min and finally 25 μl of agonist is added. Fluorescence is measured for each well at 1 second intervals for 5 minutes and the height of each fluorescence peak is compared to the height of the fluorescence peak induced by 70 pM Ala-6,12 orexin-A with buffer in place of antagonist. […] Alternatively, compound potency can be assessed by a radioligand binding assay (described in Bergman et. al. Bioorg. Med. Chem. Lett. 2008, 18, 1425-1430) in which the inhibition constant (Ki) is determined in membranes prepared from CHO cells expressing either the OX1 or OX2 receptor. The intrinsic orexin receptor antagonist activity of a compound which may be used in the present invention may be determined by these assays.

human orexin-2 receptor [2] = target: T2, human orexin-2 receptor (Homo sapiens (Human), UniProt O43614); experiment: FLIPR Ca2+ Flux Assay, hOX2R FLIPR; format: cell-based; conditions: CHO cells, 70 pM Ala-6,12 human orexin-A agonist
Description: as §1

[3] = target: T1, hOX1R (orexin-1 receptor); experiment: radioligand binding assay, hOX1R BIND; conditions: membranes from CHO cells expressing OX1 receptor; read-out: hOX1R BIND hKi
Description: In a typical experiment the OX1 and OX2 receptor antagonistic activity of the compounds of the present invention was determined in accordance with the following experimental method. For intracellular calcium measurements, Chinese hamster ovary (CHO) cells expressing the rat orexin-1 receptor or the human orexin-2 receptor, are grown in Iscove's modified DMEM containing 2 mM L-glutamine, […], 1% hypoxanthine-thymidine supplement, 100 U/ml penicillin, 100 μg/ml streptomycin and 10% heat-inactivated fetal calf serum (FCS). The cells are seeded at 20,000 cells/well into Becton-Dickinson black 384-well clear bottom sterile plates coated with poly-D-lysine. […] Within the Fluorescent Imaging Plate Reader (FLIPR, Molecular Devices), test compounds are added to the plate in a volume of 25 μl, incubated for 5 min and finally 25 μl of agonist is added. Fluorescence is measured for each well at 1 second intervals for 5 minutes and the height of each fluorescence peak is compared to the height of the fluorescence peak induced by 70 pM Ala-6,12 orexin-A with buffer in place of antagonist. […] Alternatively, compound potency can be assessed by a radioligand binding assay (described in Bergman et. al. Bioorg. Med. Chem. Lett. 2008, 18, 1425-1430) in which the inhibition constant (Ki) is determined in membranes prepared from CHO cells expressing either the OX1 or OX2 receptor. […]

human orexin-2 receptor [4] = target: T2, human orexin-2 receptor; experiment: radioligand binding assay, hOX2R BIND; conditions: membranes from CHO cells expressing OX2 receptor; read-out: hOX2R BIND hKi
Description: as §1

T2 sequence (O43614 whole entry): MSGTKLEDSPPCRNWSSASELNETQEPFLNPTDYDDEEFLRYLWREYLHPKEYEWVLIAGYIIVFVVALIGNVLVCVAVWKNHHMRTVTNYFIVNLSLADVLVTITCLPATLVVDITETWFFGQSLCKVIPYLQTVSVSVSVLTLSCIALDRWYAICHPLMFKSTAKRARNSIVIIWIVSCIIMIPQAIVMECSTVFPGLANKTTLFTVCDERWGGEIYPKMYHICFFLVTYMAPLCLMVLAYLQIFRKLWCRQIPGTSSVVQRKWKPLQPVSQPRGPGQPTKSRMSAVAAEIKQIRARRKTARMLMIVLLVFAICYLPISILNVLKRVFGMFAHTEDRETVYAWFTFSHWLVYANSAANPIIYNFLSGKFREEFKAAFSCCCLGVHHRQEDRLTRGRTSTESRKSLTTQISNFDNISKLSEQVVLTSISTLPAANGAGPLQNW
T1 sequence (P56718 whole entry, looked up): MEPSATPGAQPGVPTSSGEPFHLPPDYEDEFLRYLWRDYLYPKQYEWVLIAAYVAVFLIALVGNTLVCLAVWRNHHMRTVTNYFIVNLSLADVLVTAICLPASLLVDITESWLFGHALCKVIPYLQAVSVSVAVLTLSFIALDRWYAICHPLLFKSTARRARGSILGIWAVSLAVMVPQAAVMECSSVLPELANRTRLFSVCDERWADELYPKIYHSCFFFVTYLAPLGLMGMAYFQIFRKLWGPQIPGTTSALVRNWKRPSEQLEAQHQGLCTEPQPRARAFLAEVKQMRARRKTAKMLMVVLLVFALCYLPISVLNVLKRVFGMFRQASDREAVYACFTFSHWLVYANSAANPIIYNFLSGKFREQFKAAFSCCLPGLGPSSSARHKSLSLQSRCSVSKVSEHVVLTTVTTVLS

SMILES	IC50 [1] [nM]	IC50 (human orexin-2 receptor [2]) [nM]	Ki [3] [nM]	Ki (human orexin-2 receptor [4]) [nM]
COC(=O)c1c(C#N)ccnc1O[C@@H]1CCC(C)N(C(=O)c2ccccc2-c2ncccn2)C1 (stereo partly shown) [Example 20]	417	23.8	30.8	0.54
COC(=O)c1c(C#N)ccnc1O[C@@H]1CC[C@@H](C)N(C(=O)c2cc(F)ccc2-c2noc(C)n2)C1 [Example 13, methyl 4-cyano-2-{[(3R,6R)-1-{[5-fluoro-2-(5-methyl-1,2,4-oxadiazol-3-yl)phenyl]carbonyl}-6-methylpiperidin-3-yl]oxy}pyridine-3-carboxylate]	1030	16.8		0.5
COC(=O)c1c(C#N)ccnc1O[C@@H]1CC[C@@H](C)N(C(=O)c2cc(C)ccc2-n2nccn2)C1 [Example 18, methyl 4-cyano-2-{[(3R,6R)-6-methyl-1-{[5-methyl-2-(2H-1,2,3-triazol-2-yl)phenyl]carbonyl}piperidin-3-yl]oxy}pyridine-3-carboxylate]	311	22		0.48
COC(=O)c1c(C#N)ccnc1O[C@@H]1CC[C@@H](C)N(C(=O)c2ccc(F)cc2-c2ncccn2)C1 [Example 22, methyl 4-cyano-2-({(3R,6R)-1-[(4-fluoro-2-pyrimidin-2-ylphenyl)carbonyl]-6-methylpiperidin-3-yl}oxy)pyridine-3-carboxylate]	711	33.6		0.68
